Patent US20220195332A1, “DIETARY BUTYRATE AND ITS USES” (SOCIETE DES PRODUITS NESTLE S.A., priority 2019, published 2022)

Experiments:
[1] = system: porcine pancreatic lipase (PPL); details: pig, 3 h, pH 11.5
From the text: Because many fatty acids are only partially ionised at pH 6.8, direct titration gives only partial picture of the extent of lipid digestion, instead back titration to pH 11.5 or GC-FAME analysis is required to estimate the full extent of digestion.

[2] = system: rabbit gastric lipase (RGL) followed by porcine pancreatic lipase (PPL); experiment: Sequential in vitro digestion in simulated gastric fluid (SGF) followed by simulated intestinal fluid (SIF), pH-stat
Experimental: 10 wt % oil in water emulsions stabilised by 0.3 wt % polyoxyethylene sorbitan mono-oleate (Tween® 80) were prepared by mixing the Tween 80 into the oil phase at 40° C., then mixing with the water phase using a magnetic stirrer. An emulsion was then created using a Hielscher UP 400S ultrasonic probe homogeniser equipped with a 5 mm diameter rod-like probe by applying 100% amplitude at 100% cycle for 2 minutes whilst the sample was cooled using ice water.
The lipid emulsion (2 mL) containing 200 mg of fat was subjected to gastrointestinal in vitro lipolysis. The digestions were conducted in thermostated glass vessels (37° C.) in a pH-STAT setup controlled by a TIM 856 bi-burette pH-STAT (Radiometer Analytical, France). For gastric digestion, the sample was incubated for 90 minutes with 8.5 mL of simulated gastric fluid (SGF), which consisted of 150 mM NaCl, 450 U/mL pepsin, 18 U/mL rabbit gastric lipase at 37° C. and a pH of 5.5.
The intestinal digestion step was performed in the pH stat where the pH was kept constant at 6.8 by addition of NaOH (0.05 M). A bile salt mixture (bile salts prepared with tris buffer, 5 mM tris, 150 mM NaCl) and calcium solution (20 mM Ca, 176 5 mM tris, 150 mM NaCl) were added to the SGF-sample mixture. This mixture was transferred to the pH-stat, where the pH was adjusted to approximately 6.78. The intestinal digestion step starts when the temperature reaches 37±0.5° C. The pH was adjusted to pH 6.8 and after incubation of two minutes at this pH and temperature, a pancreatin solution (5 mM tris, 150 mM NaCl at pH 6.8) was added. The final composition of the intestinal fluid was 10 mM CaCl2, 12 mM mixed bile salts, 0.75 mM phospholipid, 150 mM NaCl and 4 mM tris(hydroxymethyl)aminomethane buffer. The intestinal digestion step was carried out for 3 hours in a titration manager from Radiometer. During the intestinal phase of digestion, the kinetics of digestion were followed using a pH-stat (TIM856, Radiometer) technique and expressed as titratable acid (rather than fatty acid) that was calculated by the equation: […]

Compound: CCCC(=O)OCC(COC(=O)CCC)OC(=O)CCC [tributyrin]
- Extent of digestion [1]: 101.5±0.9%
- Initial lipolysis rate in SIF compartment ([2]; SGF-SIF sequential digestion (90 minutes SGF pH 5.5, then SIF pH 6.8)): 44.1 ± 8.8 µmol/min
- Lipolysis by gastric lipase ([2]; indicated by decreased total fatty acid release during SIF after RGL pre-exposure): ~60%
- Hydrolysis in the stomach (gastric lipolysis), in words ([2]; simulated gastric compartment): extensive hydrolysis in the stomach
